Test results published in the supplement of paper PMC10307832.

Experiments:
Assay in all cases: relative viability (nuclei count vs DMSO), 5 days (fraction); higher = more cells survive
[1] = compound: COc1cc(N2CCC(N3CCN(C)CC3)CC2)ccc1Nc1ncc(Cl)c(Nc2ccccc2S(=O)(=O)C(C)C)n1 [NVP-TAE684] + CC1(C)CCC(c2ccc(Cl)cc2)=C(CN2CCN(c3ccc(C(=O)NS(=O)(=O)c4ccc(N[C@H](CCN5CCOCC5)CSc5ccccc5)c(S(=O)(=O)C(F)(F)F)c4)cc3)CC2)C1 [Navitoclax] (partner 0.5 µM)
How it was run: (§1)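 A single step with final 0.05% Triton X-100, 1% formaldehyde and 1 ug/ml Hoechst fixed the cells and stained nuclei 5 days after treatment. Lung cancer cell lines in 1536-well plates had been treated by pin tool the day after seeding with one drug alone or a fixed anchor-drug dose plus five library-drug doses (not always all listed) in √10 steps, and nuclei were counted on 4× images. Relative viability is the ratio of nuclei in treated wells to nuclei in vehicle wells, taken as the median of duplicate plates.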

[2] = compound: COc1cc2/c(=N/c3ccc(Br)cc3F)nc[nH]c2cc1OCC1CCN(C)CC1 [Vandetanib] + Nc1nc2[nH]cc(CCc3ccc(C(=O)N[C@@H](CCC(=O)O)C(=O)O)cc3)c2c(=O)[nH]1 [Pemetrexed] (partner 0.2 µM)
How it was run: as §1

[3] = compound: COc1cc2/c(=N/c3ccc(Br)cc3F)nc[nH]c2cc1OCC1CCN(C)CC1 [Vandetanib]
How it was run: (§2)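 In 1536-well plates, lung cancer cell lines rested overnight at 37 °C before five library-drug doses (not always all listed), √10 apart, were pinned onto vehicle-anchored plates. Nuclei were counted with MetaXpress from 4× Hoechst images taken after 5 days without medium change. Viability compares treated-well with vehicle-well nuclei as a median over plates, and plates needed control CV below 25% plus at least one doubling to pass.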

[4] = compound: C#Cc1cccc(Nc2ncnc3cc(OC)c(OCCCCCCC(=O)NO)cc23)c1 [CUDC-101]
How it was run: as §2

| Cell Line | relative viability ([1]; first compound 0.2 µM) | relative viability ([1]; first compound 0.6325 µM) | relative viability ([1]; first compound 2 µM) | relative viability ([2]; first compound 0.02 µM) | relative viability ([2]; first compound 0.06325 µM) | relative viability ([2]; first compound 0.2 µM) | relative viability ([2]; first compound 0.6325 µM) | relative viability ([2]; first compound 2 µM) | relative viability ([3]; 0.02 µM) | relative viability ([3]; 0.06325 µM) | relative viability ([3]; 0.2 µM) | relative viability ([3]; 0.6325 µM) | relative viability ([3]; 2 µM) | relative viability ([4]; 0.01 µM) | relative viability ([4]; 0.03162 µM) | relative viability ([4]; 0.1 µM) | relative viability ([4]; 0.3162 µM) | relative viability ([4]; 1 µM) |
| --- | --- | --- | --- | --- | --- | --- | --- | --- | --- | --- | --- | --- | --- | --- | --- | --- | --- | --- |
| NCI-H2347 | 0.716 | 0.826 | 0.752 | 0.433 | 0.393 | 0.443 | 0.443 | 0.427 | 1.03 | 0.785 | 1.03 | 1.06 | 0.988 | 1.1 | 1.04 | 1.07 | 1.11 | 0.972 |
| NCI-H2405 | 0.897 | 0.709 | 0.437 | 0.987 | 0.982 | 1.01 | 1.08 | 0.836 | 0.993 | 0.785 | 1.1 | 1.06 | 0.689 | 1.06 | 0.984 | 1.09 | 1.1 | 0.951 |
| NCI-H3122 | 0.282 | 0.525 | 0.176 | 0.192 | 0.196 | 0.201 | 0.202 | 0.208 | 0.928 | 1 | 1.02 | 0.984 | 0.978 | 0.942 | 0.995 | 1.03 | 1.01 | 0.994 |
| PC-3 [JPC-3] | 0.862 | 0.822 | 0.658 | 1.21 | 0.937 | 0.824 | 0.65 | 0.374 | 1 | 0.922 | 0.983 | 0.653 | 0.507 | 1.05 | 0.972 | 0.522 | 0.542 | 0.431 |
| PC-14 | 1.13 | 1.05 | 0.894 | 0.133 | 0.115 | 0.123 | 0.179 | 0.165 | 0.987 | 0.833 | 0.574 | 0.369 | 0.223 | 1.12 | 0.837 | 0.602 | 0.537 | 0.273 |
| RERF-LC-KJ | 1.14 | 1.04 | 0.67 | 0.46 | 0.459 | 0.497 | 0.418 | 0.46 | 0.962 | 0.954 | 0.963 | 0.927 | 0.815 | 1 | 1.02 | 1.01 | 0.98 | 0.801 |
| SK-LU-1 | 1.12 | 0.88 | 0.206 | 0.971 | 0.787 | 1.01 | 1.07 | 1.04 | 1.01 | 0.791 | 1.02 | 1.07 | 0.984 | 1.19 | 0.988 | 1.07 | 0.963 | 0.87 |
| SK-MES-1 | 1.29 | 1.22 | 0.78 | 1.01 | 0.882 | 0.961 | 0.77 | 0.93 | 1 | 0.896 | 1.03 | 0.912 | 0.827 | 0.968 | 0.984 | 0.989 | 0.971 | 0.683 |
| SW 1573 | 0.904 | 0.959 | 0.737 | 0.899 | 0.841 |  | 0.909 | 0.887 | 0.941 | 0.972 | 0.92 | 0.979 | 0.983 | 1.16 | 0.976 | 1.09 | 1.07 | 0.734 |
